Source: patent US9329185B2, “Sulfonate compounds” (University of Massachusetts, priority 2013, dated 2016)

What was measured:
[1] = Cleavage of reductive-labile protecting group by a reducing agent (TLC analysis); type: physicochemical; conditions: 1 mM reducing agent (dithiothreitol or tris(2-carboxyethyl)phosphine), 30 minutes, room temperature, water (pH 7), analyzed by TLC
Procedure: Compound 1 was treated with 1 mM of a reducing agent, i.e., dithiothreitol or tris(2-carboxyethyl)phosphine, for 30 minutes at room temperature in water (pH 7). The solution was analyzed by TLC. A control experiment was conducted by analyzing an aqueous solution containing Compound 1 without being treated with a reducing agent by using TLC.

Compound: Cc1ccc(C(OS(=O)(=O)CCCCl)C(F)(F)F)cc1 (stereo not drawn) [Compound 22, 2,2,2-trifluoro-1-(p-tolyl)ethyl 3-chloropropane-1-sulfonate]
- melting point: 61 to 63 °C

Compound: Cc1ccc(C(OS(=O)(=O)CCCN2CCCc3cc4c(cc32)Oc2cc3c(cc2=N4)CCC[N+]=3CCCS(=O)(=O)OC(c2ccc(C)cc2)C(F)(F)F)C(F)(F)F)cc1 (stereo not drawn)
- melting point: 220 to 222 °C (dec.)

Compound: CSSc1ccc(C(OS(=O)(=O)c2cccc3c(N(C)C)cccc23)C(F)(F)F)cc1 (stereo not drawn) [Compound 1, 2,2,2-trifluoro-1-(4-(methyldisulfanyl)phenyl)-ethyl 5-(dimethylamino)naphthalene-1-sulfonate]
- cleavage of the protecting group to form a deprotected sulfonate dye [1]: rapidly cleaved
